Non-standard residues stand in square brackets, D forms with d. No end group written: not given here.
Key:
mu-opioid receptor = details: stated in the description, no data shown; cited from earlier work
[1] = system: plasma membrane of several mammalian cell types; details: Zhao et al., 2003; cited from earlier work
[2] = system: rabbit heart, ischemia/reperfusion insult; assay: Rabbit model of AMI: regional myocardial ischemia (30 min CAO) and reperfusion (3 h); risk zone, no-reflow zone and infarct size; assay type: in vivo, New Zealand White rabbit; details: for No-reflow/area at risk / No-reflow/area of necrosis: all hearts with AR >10% of LV, mean ± SEM; for Mean IA/AR: low dose
[3] = system: anatomic zone of no-reflow in the heart; assay: No-reflow phenomenon in humans with ST-segment elevation treated with PCI; assay type: in vivo, human; details: patients; iv bolus less than 10 min before direct stenting; vs placebo; predicted
Protocol: Men and women, 18 years of age or older, who present within 6 hours after the onset of chest pain, who have ST-segment elevation of more than 0.1 mV in two contiguous leads, and for whom the clinical decision is made to treat with percutaneous coronary intervention (PCI) are eligible for enrollment. Patients are eligible for the study whether they are undergoing primary PCI or rescue PCI. Occlusion of the culprit coronary artery (Thrombolysis in Myocardial Infarction [TIMI] flow grade 0) at the time of admission is also a criterion for inclusion.
Left ventricular and coronary angiography is performed with the use of standard techniques, just before revascularization. […]
The primary end point is the size of the anatomic zone of no-reflow as assessed by one or more imaging techniques. Re-flow phenomenon is assessed using myocardial contrast echocardiography, coronary angiography, myocardial blush, coronary doppler imaging, electrocardiography, nuclear imaging single-photon emission CT, using thallium or technetium-99m, or PET. […] Post-contrast delayed enhancement is used on day 4±1, day 30±3 and 6+1.5 months after successful PCI and stenting to quantify infracted myocardium. This is defined quantitatively by an intensity of the myocardial post-contrast signal that is more than 2 SD above that in a reference region of remote, non-infarcted myocardium within the same slice. […]

[4] = system: brain, ischemia/reperfusion insult; assay: Mouse model of cerebral ischemia-reperfusion (occlusion of the middle cerebral artery); assay type: in vivo; details: wild type mice; 2-5 mg/kg ip at 0, 6, 24 and 48 h after ischemia; predicted
Protocol: Cerebral ischemia initiates a cascade of cellular and molecular events that lead to brain damage. One such event is an anatomic zone of no-reflow. Cerebral ischemia is induced by occlusion of the right middle cerebral artery for 30 min. Wild-type (WT) mice are given either saline vehicle (Veh) (ip) or D-Arg-2′,6′-Dmt-Lys-Phe-NH2 (acetate salt) (2-5 mg/kg) at 0, 6, 24 and 48 h after ischemia. Mice are killed 3 days after ischemia. The brains are sliced transversely into 6-8 sections. The slices are photographed under ultraviolet light to identify the region of no-reflow. The areas of no-reflow in each slice are digitized using Image J (supplier Rasband WS, Image J, National Institutes of Health). The areas in each slice are multiplied by the weight of the slice and the results will summed in order to obtain the mass of the no-reflow areas.
As such, the peptide D-Arg-2′,6′-Dmt-Lys-Phe-NH2 is effective in reducing the incidence of no-reflow caused by ischemia-reperfusion in the brain.

[5] = system: kidney, ischemia/reperfusion insult; assay: Rat model of renal ischemia-reperfusion; assay type: in vivo, Sprague Dawley rat; details: rats; 3 mg/kg 30 min before ischemia and before reperfusion; 45 min ischemia and 24 h reperfusion; predicted
Protocol: Sprague Dawley rats (250-300 g) are assigned to three groups: (1) sham surgery group without I/R; (2) I/R+saline vehicle treatment; (3) I/R+D-Arg-2′,6′-Dmt-Lys-Phe-NH2 (acetate salt) treatment. D-Arg-2′,6′-Dmt-Lys-Phe-NH2 (acetate salt) (3 mg/kg, dissolved in saline) is administered to rats 30 min before ischemia and immediately before onset of reperfusion. The control rats are given saline alone on the same schedule. Rats are anesthetized with a mixture of ketamine (90 mg/kg, i.p.) and xylazine (4 mg/kg, i.p.). The left renal vascular pedicle is occluded temporarily using a micro-clamp for 30 or 45 min. At the end of the ischemic period, reperfusion is established by removing of the clamp. At that time, the contralateral right kidney is removed. After 24 h reperfusion, animals are sacrificed and blood samples were obtained by cardiac puncture. Renal function is determined by blood urea nitrogen (BUN) and serum creatinine (BioAssay Systems DIUR-500 and DICT-500).
Analysis of No-reflow Zones, and Necrosis. The kidneys are sliced transversely into 6-8 sections. The slices are photographed under ultraviolet light to identify the region of no reflow. The areas of no-reflow in each slice are digitized using Image J (supplier Rasband WS, Image J, National Institutes of Health). […]

[6] = Group 1, N=15, infusion from 10′ after CAO
[7] = Group 2, N=17, infusion from 20′ after CAO
[8] = Group 3, N=17, infusion from 29′ after CAO

For Tyr-D-Arg-Phe-Lys-NH2, the “mu-opioid receptor agonist activity” value (mu-opioid receptor) is given as “has mu-opioid receptor agonist activity”.
In the case of 2′,6′-Dmt-D-Arg-Phe-Lys-NH2, the “penetration of the plasma membrane” value [1] is listed as “readily penetrates the plasma membrane of several mammalian cell types in an energy-independent manner”.
In the case of F[dR]FK-NH2, the “mu-opioid receptor agonist activity” value (mu-opioid receptor) is given as “does not have mu-opioid receptor agonist activity”.
Substance D-Arg-2′,6′-Dmt-Lys-Phe-NH2 has a No-reflow/area at risk [2, 6] of 0.23 ± 0.02, a No-reflow/area of necrosis [2, 6] of 0.74 ± 0.04 and a No-reflow/area at risk [2, 7] of 0.21 ± 0.03. For the same substance, the No-reflow/area of necrosis [2, 7] was 0.63 ± 0.05, the No-reflow/area at risk [2, 8] was 0.21 ± 0.03 and the No-reflow/area of necrosis [2, 8] was 0.70 ± 0.09. For the same substance, the “no-reflow for any given risk zone size” value ([2]; rabbit AMI, ANCOVA, treated groups combined vs control p=0.0085) was “significantly reduced”, the “infarct size reduced by up to” value ([2]; rabbit AMI, in some experiments (Table 13; FIG. 5)) was “up to 44.7%” and the “infarct size reduced, average” value ([2]; rabbit AMI, in some experiments (not shown)) was 11%. The “Results: reduction of mean IA/AR from placebo” value (“Results: reduction” below) ([2]; rabbit AMI, infusion started 10 min into 30 min of ischemia) was “↓44.7% from placebo”, the “Results: reduction” value ([2]; rabbit AMI, infusion started 20 min into 30 min of ischemia) was “↓25.5% from placebo” and the “Results: reduction” value ([2]; rabbit AMI, infusion started 30 min into ischemia immediately prior to reperfusion) was “↓25.5% from placebo”. For the same substance, the “Mean IA/AR” value ([2]; rabbit AMI, iv infusion started 10 min into 30 min of ischemia) was 20.7%, the “Mean IA/AR” value ([2]; rabbit AMI, iv infusion started 20 min into 30 min of ischemia) was 27.9% and the “Mean IA/AR” value ([2]; rabbit AMI, iv infusion started 30 min into ischemia immediately prior to reperfusion) was 26.7%. For the same substance, the “reduction in the extent of no-reflow compared with control hearts (trend)” value ([2]; rabbit AMI, treated vs control) was 21%, the “Necrotic area divided by area-at-risk (AN/AR), mean” value ([2]; rabbits with AR/LV >15%, all active groups combined, N=48) was 0.318 and the “size of the anatomic zone of no-reflow” value [3] was “smaller anatomic zone of no-reflow than that seen with placebo”. For the same substance, the “anatomic zone of no-reflow in the brain” value [4] was “prevent or reduce the anatomic zone of no-reflow”, the infarct volume [4] was “significant reduction in infarct volume” and the “anatomic zone of no-reflow in the kidney” value [5] was “prevents or reduces the anatomic zone of no-reflow”. For the same substance, the “mu-opioid receptor agonist activity” value (mu-opioid receptor) was “does not have mu-opioid receptor agonist activity”.
